Source: publication PMC2783484 (Molecular and biochemical parasitology, 2009)
Like-named read-outs stand apart in the source and are kept apart here.

Experiments:
PfENT1 [1] = target: T1, PfENT1 (Plasmodium falciparum, UniProt Q8IDM6); assay: Uptake competition vs [3H]hypoxanthine in PfENT1-expressing Xenopus oocytes; assay type: cell-based; conditions: for Ki / competition with uptake of 100 nM [3H]hypoxanthine: 10 min uptake; for Ki: one site fit, Cheng-Prusoff, mean ± SEM; for competition with uptake of 100 nM [3H]hypoxanthine: 2.5 and 10 mM competitor
T1 sequence (Q8IDM6 whole entry): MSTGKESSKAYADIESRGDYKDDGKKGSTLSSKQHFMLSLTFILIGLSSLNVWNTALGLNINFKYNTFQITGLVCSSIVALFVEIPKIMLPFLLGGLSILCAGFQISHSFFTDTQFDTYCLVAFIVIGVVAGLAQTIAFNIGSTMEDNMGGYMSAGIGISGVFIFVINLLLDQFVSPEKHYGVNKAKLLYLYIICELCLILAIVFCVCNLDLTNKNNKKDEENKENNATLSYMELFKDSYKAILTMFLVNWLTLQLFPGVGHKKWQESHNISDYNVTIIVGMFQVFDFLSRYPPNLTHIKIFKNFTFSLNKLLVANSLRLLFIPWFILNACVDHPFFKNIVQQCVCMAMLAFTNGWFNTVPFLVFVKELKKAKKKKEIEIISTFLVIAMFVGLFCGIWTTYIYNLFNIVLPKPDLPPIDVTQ

PfENT1 [2] = target: T1, PfENT1; assay: Uptake competition vs [3H]adenosine in PfENT1-expressing Xenopus oocytes; assay type: cell-based
PfENT1 [3] = target: T1, PfENT1; conditions: cited from earlier work
P. falciparum = conditions: cited from earlier work; for concentration toxic to parasite growth: as sole purine source in culture
intact parasites = conditions: read-out: Km for uptake in intact parasites; Quashie et al. (2008); cited from earlier work
PfHGXPRT = conditions: read-out: Km for HGXPRT; cited from earlier work
PfENT1 [4] = target: T1, PfENT1; assay: Time course of radiolabeled substrate uptake by PfENT1-expressing oocytes; assay type: cell-based; conditions: […] [3H] substrate
[5] = Ki, Competition vs. [3H]hypoxanthine, 100 nM [3H]hypoxanthine
[6] = read-out: PfENT1 transport Km, Xenopus oocytes, Parker et al.
[7] = read-out: PfENT1 Km, Xenopus oocytes, Carter and coworkers

## CSC[C@H]1O[C@@H](n2ccc3c(N)ncnc32)[C@H](O)[C@@H]1O [MT-Tubercidin (10), 5′-methylthiotubercidin]
PfENT1 [1]; read-out: Ki, Competition vs. [3H]hypoxanthine, 100 nM [3H]hypoxanthine
  Ki: 1100 µM

## Nc1ncnc2c1c(I)cn2[C@@H]1O[C@H](CO)[C@@H](O)[C@H]1O [Iodotubercidin, 5′-iodotubercidin]
PfENT1 [1]; [5]
  Ki: 54 ± 8 µM
PfENT1 [2]
  Ki: 66 ± 15 µM
PfENT1 [2]; two-site fit vs [3H]adenosine
  second site, fold higher apparent affinity: 1000 fold

## Nc1ncnc2nc[nH]c12 [adenine]
PfENT1 [3]; [6]
  Km: 320 µM

## NC[C@H]1O[C@@H](n2cc(I)c3c(Cl)ncnc32)[C@H](O)[C@@H]1O [compound 1, 4-Chloro-5-iodo-7-(5-amino-5-deoxy-β-d-ribofuranosyl)pyrrolo[2,3-d]pyrimidine]
PfENT1 [1]; [5]
  Ki: 3400 µM
PfENT1 [1]; vs [3H]hypoxanthine
  increase of transport Ki compared to tubercidin: 8 fold
PfENT1 [2]
  Ki: 1200 ± 300 µM

## O=c1[nH]c(=O)c2[nH]cnc2[nH]1 [xanthine]
P. falciparum
  concentration toxic to parasite growth: > 50 µM

## Nc1ncnc2c1ccn2[C@@H]1O[C@H](CO)[C@@H](O)[C@H]1O [Tubercidin, 7-deazaadenosine]
PfENT1 [1]; [5]
  Ki: 420 ± 110 µM
PfENT1 [2]
  Ki: 590 ± 100 µM
P. falciparum; in vitro culture in RPMI media supplemented with human serum
  IC37, parasite growth inhibition: 0.4 to 0.7 µM

## OC[C@H]1O[C@@H](n2cnc3c(O)ncnc32)[C@H](O)[C@@H]1O [inosine]
PfENT1 [3]; [7]
  Km: 253 µM

## Nc1ncnc2c(C3N[C@H](CO)[C@@H](O)[C@H]3O)c[nH]c12 (some centres unmarked) [Immucillin-A]
PfENT1 [1]
  competition with uptake of 100 nM [3H]hypoxanthine: failed to compete

## Nc1nc2c(ncn2[C@@H]2O[C@H](CO)[C@@H](O)[C@H]2O)c(=O)[nH]1 [guanosine]
P. falciparum
  concentration toxic to parasite growth: > 50 µM

## O=c1[nH]cnc2nc[nH]c12 [Hypoxanthine]
PfENT1 [1]; 2 mM unlabeled hypoxanthine, 100 nM [3H]hypoxanthine
  block of [3H]hypoxanthine uptake: ~ 90%
PfENT1 [1]; [5]
  Ki: 300 ± 32 µM
Intact parasites
  Km: 0.34 µM
PfENT1 [3]; [6]
  Km: 410 µM
PfHGXPRT
  Km: 0.46 µM

## O=c1[nH]cnc2cc[nH]c12 [9-Deaza-hypoxanthine, 9-Deazahypoxanthine]
PfENT1 [1]; [5]
  Ki: 710 ± 410 µM
PfENT1 [2]
  Ki: 940 ± 270 µM

## Nc1nc2c([C@@H]3N[C@H](CO)[C@@H](O)[C@H]3O)c[nH]c2c(=O)[nH]1 [Immucillin-G]
PfENT1 [1]
  competition with uptake of 100 nM [3H]hypoxanthine: failed to compete

## O=c1[nH]cnc2c([C@@H]3N[C@H](CO)[C@@H](O)[C@H]3O)c[nH]c12 [ImmH, Immucillin-H]
PfENT1 [1]
  competition with uptake of 100 nM [3H]hypoxanthine: failed to compete
P. falciparum; 10 μM immucillinH in the presence of 10 μM hypoxanthine
  inhibition of parasite growth: completely inhibited parasite growth

## CSC[C@H]1N[C@@H](c2c[nH]c3c(=O)[nH]cnc23)[C@H](O)[C@@H]1O [MT-ImmH]
P. falciparum
  effect on malaria parasites during in vitro culture: lethal

## Nc1ncnc2c1ncn2[C@@H]1O[C@H](CO)[C@@H](O)[C@H]1O [Adenosine]
PfENT1 [4]
  uptake per oocyte at 60 min: ~7 pmol
PfENT1 [3]; [7]
  Km: 13 µM
PfENT1 [3]; read-out: PfENT1 adenosine Km, Downie et al.
  Km: 1860 µM
PfENT1 [3]; [6]
  Km: 320 µM

## Nc1nc2nc[nH]c2c(=O)[nH]1 [guanine]
P. falciparum
  concentration toxic to parasite growth: > 50 µM
PfHGXPRT
  Km: 0.3 µM
